Data published in patent publication US11999727B2 (Tango Therapeutics, Inc., priority 2020, dated 2024).
Where two headings read alike, the source gives them in different places.

Columns and labels:
[1] = test system: HAP1 MTAP-deleted cell line; test: SDMA in-cell western assay, HAP1 MTAP-deleted; assay type: cell-based; conditions: for IC50: Homo sapiens; for MTAP intact/deleted ratio: IC50 ratio HAP1 MTAP-intact / HAP1 MTAP-deleted, SDMA in-cell western
Method in brief: (§1)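 IC50 values come from SDMA signal quantified by in-cell western in two HAP1 lines, one with native MTAP levels and one lacking MTAP.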

PRMT5 [2] = target: T1, PRMT5 (Homo sapiens, UniProt O14744); test: PRMT5 biochemical IC50 assay with no cofactor; conditions: PRMT5, no cofactor; read-out: No Cofactor/rel IC50
T1 construct: purchased Viva (custom protein)
T1 sequence (O14744 whole entry): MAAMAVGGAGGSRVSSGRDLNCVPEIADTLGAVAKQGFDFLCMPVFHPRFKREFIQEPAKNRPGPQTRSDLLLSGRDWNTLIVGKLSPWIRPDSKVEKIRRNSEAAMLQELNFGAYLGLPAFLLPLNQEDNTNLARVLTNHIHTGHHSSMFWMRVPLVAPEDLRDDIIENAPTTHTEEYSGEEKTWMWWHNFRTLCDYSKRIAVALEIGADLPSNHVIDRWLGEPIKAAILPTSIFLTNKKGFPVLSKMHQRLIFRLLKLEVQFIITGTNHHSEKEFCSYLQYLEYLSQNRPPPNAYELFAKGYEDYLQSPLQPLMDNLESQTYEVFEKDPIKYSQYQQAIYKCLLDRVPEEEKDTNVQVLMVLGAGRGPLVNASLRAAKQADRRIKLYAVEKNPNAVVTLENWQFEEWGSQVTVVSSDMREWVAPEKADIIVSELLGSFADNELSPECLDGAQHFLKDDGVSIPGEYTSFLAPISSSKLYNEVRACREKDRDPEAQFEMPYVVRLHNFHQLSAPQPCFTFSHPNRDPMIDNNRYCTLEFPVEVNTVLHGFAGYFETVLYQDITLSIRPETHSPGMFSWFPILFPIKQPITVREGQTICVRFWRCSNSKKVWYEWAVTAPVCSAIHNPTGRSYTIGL
T1 sequence (Q9BQA1 whole entry partner): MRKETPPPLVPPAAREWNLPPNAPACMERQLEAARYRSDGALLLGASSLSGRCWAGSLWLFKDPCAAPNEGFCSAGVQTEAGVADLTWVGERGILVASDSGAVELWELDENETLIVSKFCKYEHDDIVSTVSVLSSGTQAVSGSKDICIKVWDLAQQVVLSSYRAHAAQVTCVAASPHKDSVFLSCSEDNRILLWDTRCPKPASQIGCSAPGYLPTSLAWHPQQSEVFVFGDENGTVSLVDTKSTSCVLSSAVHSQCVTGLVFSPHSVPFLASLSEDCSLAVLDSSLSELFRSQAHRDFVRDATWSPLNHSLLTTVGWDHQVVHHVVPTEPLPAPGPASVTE
Description: Table 1 indicates IC50 values (μM) against PRMT5 for exemplary compounds in the presence of SAM as cofactor, with no cofactor, and with MTA as cofactor, respectively (columns 4-6). […] Ki values can be calculated from the IC50 values as described in the Examples section. As detailed in the Examples section, for the assay performed in the presence of SAM, IC50=Ki×1.5 (Ki=IC50/1.5).

[3] = test system: HAP1 MTAP-intact cell line; test: SDMA in-cell western assay, HAP1 MTAP-intact; assay type: cell-based; conditions: Homo sapiens
Method in brief: as §1

PRMT5 [4] = target: T1, PRMT5; test: PRMT5 biochemical IC50 assay with SAM as cofactor; conditions: PRMT5, SAM as cofactor; read-out: SAM IC50
PRMT5 [5] = target: T1, PRMT5; test: PRMT5 biochemical IC50 assay with MTA as cofactor; conditions: PRMT5, MTA as cofactor; read-out: MTA IC50
[6] = test system: HAP1 MTAP-deleted cell line; test: Viability assay, MTAP-deleted cell line; assay type: cell-based
Description: Table 1 additionally indicates IC50 values in a viability assay for the MTAP-deleted cell line (column 10), indicating the effect of treatment with compound on cell survival.

[7] = HAP1, SDMA in-cell western, HAP1 MTAP-deleted, read-out: HAP1 MTAP deleted IC50
[8] = HAP1, SDMA in-cell western, HAP1 MTAP-intact, read-out: MTAP HAP1 intact IC50
[9] = Homo sapiens, HAP1, viability assay, MTAP-deleted cell line, read-out: HAP1 MTAP deleted viability
[10] = HAP1, read-out: HAP1 MTAP deleted IC50
[11] = HAP1, read-out: MTAP HAP1 intact IC50
[12] = Homo sapiens, HAP1, read-out: HAP1 MTAP deleted viability

| Structure (SMILES) | IC50 [1, 7] [nM] | MTAP intact/deleted ratio [1] | IC50 (PRMT5 [2]) [nM] | IC50 [3, 8] [nM] | IC50 (PRMT5 [4]) [nM] | IC50 (PRMT5 [5]) [nM] | IC50 [6, 9] [nM] | IC50 [1, 10] [nM] | IC50 [3, 11] [nM] | IC50 [6, 12] [nM] | IC50 ([6]; viability assay, MTAP-deleted cell line, read-out: HAP1 MTAP deleted viability) [nM] |
| --- | --- | --- | --- | --- | --- | --- | --- | --- | --- | --- | --- |
| Cc1cc(NC(=O)C(=O)N2C[C@H](C)CC[C@H]2c2cccc(Cl)c2)cnc1N (single isomer, unassigned) [Compound 283] | > 1000 | B (an IC50 ratio greater than or equal to 3 fold but lower than 10 fold) | > 500 | > 1000 | > 500 | > 500 | > 10000 |  |  |  |  |
| Cc1cc(NC(=O)C(=O)N2C[C@@H](C)CC[C@@H]2c2cccc(Cl)c2)cnc1N (single isomer, unassigned) [Compound 284] | < 100 | A (an IC50 ratio greater than or equal to 10 fold) | < 50 | 100 to 1000 | 50 to 500 | < 50 | < 1000 |  |  |  |  |
| COc1ncc(NC(=O)C(=O)N2C[C@@H](C)CC[C@@H]2c2ccc(O)cc2)cc1C(N)=O (single isomer, unassigned) [Compound 288] |  | A (an IC50 ratio greater than or equal to 10 fold) | < 50 |  | 50 to 500 | < 50 |  | < 100 | 100 to 1000 | < 1000 |  |
| Cc1cc(NC(=O)C(=O)N2C[C@@H](C)CC[C@@H]2[C@H]2CC[C@@H](C(C)(C)C)CC2)cnc1N (single isomer, unassigned) [Compound 290] | > 1000 | C (an IC50 ratio of less than 3 fold) | > 500 | > 1000 | > 500 | > 500 | > 10000 |  |  |  |  |
| COc1ncc(NC(=O)C(=O)N2C[C@@H](C)CC[C@@H]2c2ccccc2)cc1C(N)=O (single isomer, unassigned) [Compound 291] |  | C (an IC50 ratio of less than 3 fold) | > 500 |  | > 500 | > 500 |  | > 1000 | > 1000 | > 10000 |  |
| COc1ncc(NC(=O)C(=O)N2C[C@H](C)CC[C@H]2c2ccc(O)cc2)cc1C(N)=O (single isomer, unassigned) [Compound 292] |  | C (an IC50 ratio of less than 3 fold) | > 500 |  | > 500 | > 500 |  | > 1000 | > 1000 | > 10000 |  |
| Cc1cc([C@H]2CC[C@H](C)CN2C(=O)C(=O)Nc2cncc(C(N)=O)c2)ccc1F (single isomer, unassigned) [Compound 293] | < 100 | A (an IC50 ratio greater than or equal to 10 fold) | 50 to 500 | > 1000 | < 50 | < 50 | 1000 to 10000 |  |  |  |  |
| COc1ncc(NC(=O)C(=O)N2CCCCC2C2CCCC2)cc1C(N)=O (single isomer, unassigned) [Compound 294, 5-(2-(2-cyclopentylpiperidin-1-yl)-2-oxoacetamido)-2-methoxynicotinamide] | < 100 | A (an IC50 ratio greater than or equal to 10 fold) | 50 to 500 | > 1000 | 50 to 500 | < 50 |  |  |  |  | 1000 to 10000 |
| Cc1cc(NC(=O)C(=O)N2C[C@H](C)CC[C@H]2c2cccnc2)cnc1N (single isomer, unassigned) [Compound 301] | < 100 | B (an IC50 ratio greater than or equal to 3 fold but lower than 10 fold) | 50 to 500 | 100 to 1000 | 50 to 500 | < 50 | 1000 to 10000 |  |  |  |  |
| COc1ncc(NC(=O)C(=O)N2C[C@@H](C)CC[C@@H]2c2cccs2)cc1C(N)=O (single isomer, unassigned) [Compound 303] | < 100 | A (an IC50 ratio greater than or equal to 10 fold) | < 50 | > 1000 | 50 to 500 | < 50 | < 1000 |  |  |  |  |
